For orientation: IC50 means the concentration that gives 50% inhibition. One may read the EC50 as the midpoint of the concentration-response curve. Low values mean an effect from little substance, high ones a need for much substance. What is called CC50 is the concentration that lowers cell viability or growth by half.

We go through six compounds from ChEMBL document CHEMBL1201862, “PubChem BioAssay data set” (2004).

The source made the active and inactive calls. Some results are limits rather than exact numbers.

For test [1], the target named is SUMO E1/E2 (Homo sapiens, UniProt P63279+Q9UBE0+Q9UBT2). Briefly: SAR analysis of SUMOylation using HTRF in an in-Vitro dose response assay. [Related pubchem assays (depositor defined):AID2006, AID2011, AID2018, AID2069, AID2658]. Format: functional.
SUMO E1/E2, sequence (Q9UBE0 whole entry): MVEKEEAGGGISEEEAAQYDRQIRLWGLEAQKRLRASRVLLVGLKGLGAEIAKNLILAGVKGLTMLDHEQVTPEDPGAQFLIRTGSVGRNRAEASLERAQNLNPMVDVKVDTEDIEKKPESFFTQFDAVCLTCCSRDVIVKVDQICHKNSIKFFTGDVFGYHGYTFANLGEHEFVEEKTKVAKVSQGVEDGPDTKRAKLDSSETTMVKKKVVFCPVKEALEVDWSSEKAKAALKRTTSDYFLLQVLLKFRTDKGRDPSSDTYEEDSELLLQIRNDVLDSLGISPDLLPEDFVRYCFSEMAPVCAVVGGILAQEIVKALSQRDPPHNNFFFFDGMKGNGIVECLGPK
SUMO E1/E2, sequence (Q9UBT2 whole entry): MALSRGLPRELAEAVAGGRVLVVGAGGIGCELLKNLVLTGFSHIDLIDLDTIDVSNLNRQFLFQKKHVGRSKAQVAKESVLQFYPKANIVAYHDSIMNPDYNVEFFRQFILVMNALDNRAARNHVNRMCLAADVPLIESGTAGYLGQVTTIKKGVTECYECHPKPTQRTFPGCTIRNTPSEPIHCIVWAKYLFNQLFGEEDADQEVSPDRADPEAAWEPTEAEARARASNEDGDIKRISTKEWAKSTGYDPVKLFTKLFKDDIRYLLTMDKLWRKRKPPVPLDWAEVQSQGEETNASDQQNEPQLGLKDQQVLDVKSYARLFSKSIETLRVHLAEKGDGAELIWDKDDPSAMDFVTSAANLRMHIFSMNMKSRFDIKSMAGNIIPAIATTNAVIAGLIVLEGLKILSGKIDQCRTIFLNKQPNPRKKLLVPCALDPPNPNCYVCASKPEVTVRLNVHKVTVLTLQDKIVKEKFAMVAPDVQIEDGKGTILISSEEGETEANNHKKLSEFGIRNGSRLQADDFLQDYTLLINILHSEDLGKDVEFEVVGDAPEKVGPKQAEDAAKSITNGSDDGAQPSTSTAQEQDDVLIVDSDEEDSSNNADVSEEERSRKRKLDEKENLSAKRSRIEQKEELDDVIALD
SUMO E1/E2, sequence (P63279 whole entry): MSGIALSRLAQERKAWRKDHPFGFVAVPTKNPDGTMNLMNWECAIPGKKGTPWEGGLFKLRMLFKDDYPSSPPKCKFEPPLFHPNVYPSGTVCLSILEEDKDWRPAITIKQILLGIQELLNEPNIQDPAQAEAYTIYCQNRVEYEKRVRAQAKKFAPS
The target of test [2] is T1, Exodeoxyribonuclease V (Escherichia coli (strain K12), UniProt P04993+P07648+P08394).
T1 sequence (P04993 whole entry): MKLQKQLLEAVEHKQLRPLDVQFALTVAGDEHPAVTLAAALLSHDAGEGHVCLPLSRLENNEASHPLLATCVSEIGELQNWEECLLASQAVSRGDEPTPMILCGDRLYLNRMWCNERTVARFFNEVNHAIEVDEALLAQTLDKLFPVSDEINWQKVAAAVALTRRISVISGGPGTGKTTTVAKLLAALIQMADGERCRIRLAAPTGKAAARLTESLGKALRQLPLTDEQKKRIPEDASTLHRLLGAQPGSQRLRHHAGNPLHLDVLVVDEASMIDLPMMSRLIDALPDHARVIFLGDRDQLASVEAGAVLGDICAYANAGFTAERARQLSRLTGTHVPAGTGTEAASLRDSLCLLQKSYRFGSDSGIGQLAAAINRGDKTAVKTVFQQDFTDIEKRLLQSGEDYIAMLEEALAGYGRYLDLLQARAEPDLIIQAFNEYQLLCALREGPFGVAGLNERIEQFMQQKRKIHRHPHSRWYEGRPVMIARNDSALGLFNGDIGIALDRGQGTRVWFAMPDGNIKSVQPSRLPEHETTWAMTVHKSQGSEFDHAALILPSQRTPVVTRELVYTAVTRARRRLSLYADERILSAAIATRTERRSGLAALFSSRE
T1 sequence (P07648 whole entry): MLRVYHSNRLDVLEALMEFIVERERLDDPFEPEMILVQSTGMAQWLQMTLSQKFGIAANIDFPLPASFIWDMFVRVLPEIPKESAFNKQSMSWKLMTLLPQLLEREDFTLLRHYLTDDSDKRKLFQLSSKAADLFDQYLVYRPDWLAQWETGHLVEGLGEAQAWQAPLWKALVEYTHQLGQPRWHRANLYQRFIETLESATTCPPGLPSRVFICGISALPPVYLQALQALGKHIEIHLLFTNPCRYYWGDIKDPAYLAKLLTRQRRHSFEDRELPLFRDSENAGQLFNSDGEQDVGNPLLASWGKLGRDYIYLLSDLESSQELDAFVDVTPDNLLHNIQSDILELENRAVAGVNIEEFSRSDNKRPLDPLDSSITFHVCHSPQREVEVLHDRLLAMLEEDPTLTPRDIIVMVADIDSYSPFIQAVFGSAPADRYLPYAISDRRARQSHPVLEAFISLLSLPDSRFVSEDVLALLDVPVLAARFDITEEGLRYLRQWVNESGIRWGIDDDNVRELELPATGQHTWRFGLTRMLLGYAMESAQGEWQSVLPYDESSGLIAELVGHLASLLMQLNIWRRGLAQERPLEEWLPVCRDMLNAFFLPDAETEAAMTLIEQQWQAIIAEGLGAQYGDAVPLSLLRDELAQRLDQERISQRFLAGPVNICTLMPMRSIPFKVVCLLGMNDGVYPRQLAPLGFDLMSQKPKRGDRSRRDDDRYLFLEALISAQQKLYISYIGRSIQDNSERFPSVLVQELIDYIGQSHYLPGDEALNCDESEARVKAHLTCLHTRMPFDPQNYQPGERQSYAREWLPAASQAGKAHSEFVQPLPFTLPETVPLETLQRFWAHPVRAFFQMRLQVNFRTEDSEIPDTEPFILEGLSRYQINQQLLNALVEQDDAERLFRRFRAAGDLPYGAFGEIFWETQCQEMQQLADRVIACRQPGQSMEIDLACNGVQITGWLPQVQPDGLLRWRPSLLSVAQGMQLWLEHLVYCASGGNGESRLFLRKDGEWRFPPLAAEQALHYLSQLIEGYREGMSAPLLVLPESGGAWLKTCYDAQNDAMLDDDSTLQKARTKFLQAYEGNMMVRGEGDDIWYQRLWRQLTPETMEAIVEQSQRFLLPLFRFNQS
T1 sequence (P08394 whole entry): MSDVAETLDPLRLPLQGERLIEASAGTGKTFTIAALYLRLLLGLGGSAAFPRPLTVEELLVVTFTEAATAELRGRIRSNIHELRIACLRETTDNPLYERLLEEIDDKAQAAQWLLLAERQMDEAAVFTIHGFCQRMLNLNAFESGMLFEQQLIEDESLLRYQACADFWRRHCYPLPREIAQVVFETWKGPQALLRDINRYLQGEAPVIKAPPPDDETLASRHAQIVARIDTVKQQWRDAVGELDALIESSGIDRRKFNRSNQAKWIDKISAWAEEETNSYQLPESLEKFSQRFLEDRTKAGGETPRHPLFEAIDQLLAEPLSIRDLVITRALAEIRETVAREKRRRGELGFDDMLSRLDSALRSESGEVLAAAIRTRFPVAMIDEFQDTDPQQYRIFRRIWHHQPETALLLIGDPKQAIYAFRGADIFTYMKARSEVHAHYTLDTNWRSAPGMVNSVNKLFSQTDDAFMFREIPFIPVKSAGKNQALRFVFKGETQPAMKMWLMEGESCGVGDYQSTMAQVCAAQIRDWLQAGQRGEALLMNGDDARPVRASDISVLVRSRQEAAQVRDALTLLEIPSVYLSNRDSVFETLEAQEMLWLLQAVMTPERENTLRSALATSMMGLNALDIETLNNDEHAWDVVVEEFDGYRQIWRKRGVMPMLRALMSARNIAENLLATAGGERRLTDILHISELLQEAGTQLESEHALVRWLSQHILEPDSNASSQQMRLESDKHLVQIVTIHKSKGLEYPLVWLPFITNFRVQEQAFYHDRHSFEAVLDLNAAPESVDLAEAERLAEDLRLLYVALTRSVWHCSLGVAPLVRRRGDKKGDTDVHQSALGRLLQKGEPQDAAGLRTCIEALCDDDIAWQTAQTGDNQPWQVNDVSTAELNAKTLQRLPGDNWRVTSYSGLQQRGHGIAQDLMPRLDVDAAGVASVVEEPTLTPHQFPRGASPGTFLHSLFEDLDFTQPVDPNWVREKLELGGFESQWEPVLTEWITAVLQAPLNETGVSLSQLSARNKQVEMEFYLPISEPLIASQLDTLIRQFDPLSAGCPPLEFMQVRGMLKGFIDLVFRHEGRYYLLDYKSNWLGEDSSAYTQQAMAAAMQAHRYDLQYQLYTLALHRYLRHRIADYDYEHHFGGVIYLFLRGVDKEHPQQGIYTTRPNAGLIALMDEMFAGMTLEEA
Briefly: E. coli RecBCD inhibitors, dose response, counter-screen for AddAB inhibitor project, absorbance, V66 E. coli, mutant T4 phage (AID 492957). Format: functional, cell-based, Escherichia coli str. K-12 substr. MG1655.

Test [3] can be described thus: Counterscreen for AddAB inhibitors: absorbance-based bacterial cell-based high throughput dose response assay for inhibitors of bacterial viability. [Related pubchem assays (depositor defined):AID435030, AID449728, AID449731, AID488942, AID488955, AID488956]. It is filed as functional. Background: Counterscreens check selectivity or assay interference.
The target in test [4] is SUMO-activating enzyme (Homo sapiens, UniProt Q9UBT2). Briefly: SUMOylation inhibitor hit validation, confirmation, SUMOylation inhibitor project, biochemical, AlphaScreen (AID 2018). Format: functional.
SUMO-activating enzyme, sequence (Q9UBE0 whole entry): as the sequence (Q9UBE0 whole entry) above
SUMO-activating enzyme, sequence (Q9UBT2 whole entry): as the sequence (Q9UBT2 whole entry) above
Test [5] in a line: Luminescence Cell-Based Dose Response HTS to Identify Inhibitors of 5'UTR Stem-Loop Driven Prion Protein mRNA Translation in H4 Neuroglioblastoma Cells. [Related pubchem assays: 1827 (Project Summary), 1813 (Primary HTS)]. Format: functional.
A short description of test [6]: inhibitors of SNCA 5'UTR-driven reporter translation, confirmation, H4 neuroglioma cells, luminescence (AID 1988). Format: functional, cell-based.
The nature of test [7]: inhibitors of firefly luciferase expression or activity, dose response, H4 neuroglioma cells, luminescence (AID 1990). Format: functional, cell-based.
The subject of test [8] is CHO-K1. Briefly: Counterscreen for antagonists of the orexin 1 receptor (OX1R; HCRTR1): Homogeneous time resolved fluorescence (HTRF)-based cell-based dose response assay to identify antagonists of the parental CHO-K1 cell line. [Related pubchem assays (depositor defined):AID434989, AID435008, AID463079, AID485270, AID492963, AID492964, AID492965, AID493232, AID504699, AID504701]. It is filed as functional. To be noted: Cricetulus griseus.

Test [9] is described as follows: THP-1 cell cytotoxicity, dose response, cytotoxicity control for non-replicating M. tuberculosis project (AID 489025). It is filed as functional.
The target of test [10] is T2, Orexin/Hypocretin receptor type 1 (Homo sapiens, UniProt O43613).
T2 sequence (O43613 whole entry): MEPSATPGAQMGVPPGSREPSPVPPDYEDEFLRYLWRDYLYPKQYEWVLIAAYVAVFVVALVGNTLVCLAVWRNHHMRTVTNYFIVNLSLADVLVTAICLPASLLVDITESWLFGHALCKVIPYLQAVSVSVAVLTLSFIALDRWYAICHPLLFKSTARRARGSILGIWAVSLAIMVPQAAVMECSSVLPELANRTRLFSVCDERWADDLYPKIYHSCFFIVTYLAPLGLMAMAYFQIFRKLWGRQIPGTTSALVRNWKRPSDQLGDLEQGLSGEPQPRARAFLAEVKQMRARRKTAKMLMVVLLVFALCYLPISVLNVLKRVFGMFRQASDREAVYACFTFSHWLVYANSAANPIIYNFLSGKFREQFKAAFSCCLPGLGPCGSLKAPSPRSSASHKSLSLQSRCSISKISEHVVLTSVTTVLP
Briefly: Fluorescence-based cell-based high throughput dose response assay for antagonists of the orexin 1 receptor (OX1R; HCRTR1). [Related pubchem assays (depositor defined):AID434989, AID435008, AID463079, AID485270, AID492963, AID492964, AID492965, AID493232, AID504717, AID504718]. Format: functional.

Test [11] addresses G-protein coupled receptor 55 (Homo sapiens, UniProt Q9Y2T6). Briefly: GPR55 antagonists blocking LPI-driven arrestin recruitment, primary screen, imaging, U2OS, beta-arrestin-GFP, LPI agonist (AID 2013).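 Also: antagonist potency measured as reduced agonist-driven arrestin aggregation.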 Format: functional. (Arrestin recruitment assays detect the binding of arrestin to an activated receptor.)
A short description of test [12]: HepG2 cell cytotoxicity, dose response, cytotoxicity control for non-replicating M. tuberculosis project (AID 489018). Format: functional. To be noted: Mycobacterium tuberculosis.
Test [13] can be described thus: cells. It is filed as functional.
Test [14] deals with T2, Orexin/Hypocretin receptor type 1. Briefly: Homogeneous Time Resolved Fluorescence (HTRF)-based cell-based high throughput dose response assay for antagonists of the orexin 1 receptor (OX1R; HCRTR1). [Related pubchem assays (depositor defined):AID434989, AID435008, AID463079, AID485270, AID492963, AID492964, AID492965, AID493232, AID504717, AID504718]. It is filed as functional.

The target of test [15] is T3, RNA-editing ligase 1, mitochondrial (Trypanosoma brucei brucei, UniProt P86926).
T3 sequence (P86926 whole entry): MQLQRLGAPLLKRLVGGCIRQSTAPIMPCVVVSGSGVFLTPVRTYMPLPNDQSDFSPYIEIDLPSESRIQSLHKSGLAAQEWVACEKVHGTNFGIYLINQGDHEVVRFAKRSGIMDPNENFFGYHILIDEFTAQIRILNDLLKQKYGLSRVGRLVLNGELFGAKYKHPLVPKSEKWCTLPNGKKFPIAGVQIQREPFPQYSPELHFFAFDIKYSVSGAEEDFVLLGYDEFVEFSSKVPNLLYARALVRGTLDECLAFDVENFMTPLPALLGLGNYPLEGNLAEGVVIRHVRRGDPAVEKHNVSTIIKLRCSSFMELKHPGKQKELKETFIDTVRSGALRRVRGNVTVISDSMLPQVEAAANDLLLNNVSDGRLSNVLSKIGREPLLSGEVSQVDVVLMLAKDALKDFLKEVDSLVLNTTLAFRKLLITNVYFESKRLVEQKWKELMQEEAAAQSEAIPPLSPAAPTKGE
Briefly: TbREL1 ligase inhibitors, dose response, biochemical, fluorescence, Trypanosoma brucei (AID 1117295). Format: functional.

Test [16] in a line: Counterscreen for antagonists of the orexin 1 receptor (OX1R; HCRTR1): Fluorescence-based cell-based high throughput dose response assay to identify antagonists of the parental CHO cell line. [Related pubchem assays (depositor defined):AID434989, AID435008, AID463079, AID485270, AID492963, AID492964, AID492965, AID493232, AID504699, AID504701]. Format: functional.

G-protein coupled receptor 55, sequence (Q9Y2T6 whole entry): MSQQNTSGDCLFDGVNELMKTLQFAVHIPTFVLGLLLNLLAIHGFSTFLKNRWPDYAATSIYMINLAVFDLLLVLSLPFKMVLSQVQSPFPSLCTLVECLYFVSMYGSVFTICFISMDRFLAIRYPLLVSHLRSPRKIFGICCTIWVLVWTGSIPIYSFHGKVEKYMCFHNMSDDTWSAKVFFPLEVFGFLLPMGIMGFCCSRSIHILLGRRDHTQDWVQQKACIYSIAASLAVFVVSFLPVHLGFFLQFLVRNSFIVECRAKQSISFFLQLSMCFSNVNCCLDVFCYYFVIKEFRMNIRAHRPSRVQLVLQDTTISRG

In the case of `Cc1ccc(C2Nc3ccc(C(=O)O)cc3C3C=CCC32)cc1` (stereo not drawn), in test [1], the IC50 was > 100 µM (inactive).

In the case of `CC(=O)N(O)CCCCCNC(=O)CCC(=O)N(O)CCCCCNC(=O)CCC(=O)N(O)CCCCCNC(=O)CCC(=O)O`, the IC50 in [2] and in test [3] was > 118 µM (inactive) throughout.

With `Cc1ccc(Nc2cc3ccccc3c(=O)[nH]2)cc1`, the IC50 in test [1] is 19.8 µM (active).

Consider `Cc1ccc(-c2nc3ccccc3o2)cc1NC(=O)c1ccc2c(c1)OCO2`, for which the IC50 in [4] is 34.1 µM (active).

In the case of `Nc1c2cnnc-2nc(SCC(=O)c2ccc(Br)cc2)n1-c1ccc(Br)cc1`, the EC50 in test [5], in [6] and in [7] was > 120 µM (not active) in each case. Moreover, in test [4], the IC50 was 59.1 µM (active).

Regarding `COC(=O)C1=C(C)N(Cc2ccccc2)C(NCc2ccccc2)=N[C@H]1c1cccc(F)c1`, the IC50 in [8] was > 66.2 µM (inactive); in [10], 17.9 µM (inactive); in [11] it was 1.25 µM (active); in test [13] it was 19.8 µM (active); in [14], > 66.2 µM (inactive); in test [15], > 96.6 µM (inactive). The IC50 in test [16] is 23.8 µM (inactive). For the same compound, the CC50 was 15 µM (active) in [9] and 14.9 µM (active) in test [12].
